Reference: paper PMC9965125, “New NSAID Conjugates as Potent and Selective COX-2 Inhibitors: Synthesis, Molecular Modeling and Biological Investigation” (Molecules, 2023)
Values joined by “and” are separate entries in the source; they are usually repeats but may differ in a detail not shown here. Equal entries are not always repeated.

Tests used:
hot plate latency = test: hot plate assay (central analgesic); assay type: in vivo, mice; details: for % Protection / Latency Period ± SE: 10 mg/kg indomethacin mol equivalent i.p.; for Latency Period ± SE: cutoff 15 sec; for Potency: at 120 min compared to indomethacin
Procedure: The % potency was calculated by equ. (4) (Table 2). […]
% Potency = % protection of the tested compound x 100 ……. (4) […]
Central analgesic (hot plate) testing
The standard hot plate technique was undertaken by in vivo standard hot plate test [ 1,2]. […]
by placing them on a hot plate maintained at 55 ± 1 °C, 30 min. […]
suspended in sterile/distilled water by the ai d of two drops of Tween 80, and recording the reaction time in seconds for forepaw licking or jumping. The control group animals were given sterile/distilled water only with few drops of Tween 80. The maximum cutoff time was chosen as 15 sec. to prevent tissue damage. Response latencies were measured 30, 60, 90 and 120 min. after the application. The % protection was calculated by equ. ( 5) where, T1, T0 are the latency time mean of the tested compound and control group, respectively (Table 3).

TNF-α mRNA = details: 40 μg/mL; in comparison to LPS-stimulated cells only
Procedure: (§1) For this purpose, the mRNA levels of IL-6, TNF-α, and iNOS were measured using real-time qPCR (RT-qPCR).
(§2) Treatment of LPS-stimulated RAW264.7 macrophages was done with 40 µg/mL of the isolated
(§3) Evaluation of inflammatory mRNA expression levels
(§4) Inflammatory mRNA expression levels were evaluated using RT-qPCR (Applied Biosystems, CA, USA). Total RNA was extracted by lysing RAW264.7 cells using Qiazol Lysis Reagent. The extracted RNA was used to synthesize cDNA using RevertAid First Strand cDNA synthesis kit according to manufacturer’s protocol. The cDNA was then added with forward and reverse
(§5) primers, nuclease free water and maxima SYBR green mix (Thermo Fisher Scientific, MA, USA).
(§6) The inflammation-related genes of mRNA expression levels are as follows: IL-6, TNF-α, and
(§7) iNOS. All expression was normalized to GAPDH (endogenous control) and relative fold mRNA
(§8) expression levels were calculated using the comparative 2 −ΔΔCT method. The PCR reaction consists
(§9) of initiation stage at 95 °C for 10 min, after that 40 PCR cycles of d enaturation stage for 15 s at 95
(§10) °C and annealing and extension for 1 min at 60 °C.

[1] = system: LPS-stimulated RAW264.7 macrophages; test: NO production of LPS-induced RAW264.7 (Griess method); assay type: cell-based; details: 40 μg/mL; LPS 10 ng/mL; LPS only 22 μM, baseline 12.8 μM
gastric mucosa = details: both, albino, mouse, in vivo, 3 days; for % Incidence of Ulcer Divided by 10 / Average Severity of Ulcer / Average of Ulcer Number / Number of Animals with Ulcer: po, 10 mg/kg
Procedure: The ulcerogenic liability was determined in albino mice obeying the standard method.
Animals of either sex (pregnant females were excluded) weighing 20 –25 g were divided into 8 groups of 6 animals each. The animals fasted 18 h before drug administration.
80 administered orally for three successive days to fasted animals at a dose of 10 mg kg-1 (animal […]
The control group animals were given water only with few drops of Tween 80. The animals were sacrificed by cervical dislocation and the stomach was removed, opened along the greater curvature and rinsed with saline. The gastric mucosa was examined with a magnifying lens (10x) for the presence of lesions and ero sions. The ulcer index was calculated (Table 4) and the degree of ulcerogenic effect was expressed in terms of.
1. The percentage incidence of ulcers divided by 10.
2. Average number of ulcers per stomach.
3. Average severity of ulcers.
The ulcer index is the value that resulted from the sum of the above three values. […]

[2] = system: acetic acid-induced abdominal writhing; test: acetic acid-induced abdominal writhing assay (peripheral analgesic); assay type: in vivo, mice; details: for % Inhibition/Protection / Writing Reflex ± SE: 10 mg/kg indomethacin mol equivalent i.p.; for Writing Reflex ± SE: number of writhing counted for 30 min; for Potency: % inhibition/protection compared to indomethacin
Procedure: Peripheral analgesic testing
Peripheral analgesic activity was measured by the standard acetic acid-induced writhing […]
One hour after intraperitoneally (i,p.) administration of 10 mg kg−1 (mice body weight) […]
distilled/sterile water by the aid of two drops of Tween 80, each mouse was injected with 0.1 ml of 1% acetic acid solution i.p. The control group animals were given sterile/distilled water only with few drops of Tween 80. Starting 5 min after the acetic acid injection, the number of muscular contractions in each mouse was counted for 30 min. A significant reduction in the number of writhing by any test compound as compared to control animals was considered as a positive analgesic response. Percentage protection was calculated according to equ. (3), where n stands for the average number of writhing in the control group and n' is the average number of writhing in the treated group. The % potency was calculated by equ. (4) (Table 2).
% Inhibition/protection = n−n′ x100 … . (3)

iNOS mRNA = details: 40 μg/mL; in comparison to LPS-stimulated cells only
Procedure: as §1, §2, §3, §4, §5, §6, §7, §8, §9, §10

IL-6 mRNA = details: 40 μg/mL; in comparison to LPS-stimulated cells only
Procedure: as §1, §2, §3, §4, §5, §6, §7, §8, §9, §10

mice = test: toxicological bioassay; assay type: in vivo; details: five times the anti-inflammatory dose (50 mg/kg indomethacin mol equivalent); recorded 24 h post-administration
Procedure: Five times the anti-inflammatory dose was orally administrated. […]
5a, 5b, 5d, 5e) was determined utilizing the standard method in mice. Albino mice weighing 20–25 g were divided into 6 groups of 6 mice each. Administrations of the tested compounds dissolved in distilled water by the aid of few drops of Tween 80 were given intraperitoneally in 50 […]
inflammatory dosage). The control group was given water only with few drops of Tween 80. The toxic symptoms and mortality rates were recorded 24 h post -administration in each group.

[3] = system: carrageenan induced paw edema; test: carrageenan-induced rat paw edema; assay type: in vivo; details: for % Inhibition of Edema ± Standard Error / Mean Edema Thickness: 10 mg/kg indomethacin mol equivalent i.p.; for Mean Edema Thickness: ± standard error; for % Potency: % inhibition of edema thickness relative to indomethacin at 3 h
Procedure: Anti-inflammatory activity screening
The anti-inflammatory activity of the tested compounds was determined in-vivo by the acute carrageenan induced paw edema standard method in rats. Adult Wister rats of either sex (pregnant female animals were excluded) weighing 120–150 g were divided into 19 groups of 6 animals each. The tested compounds dissolved in DMSO, at a dose of 10 mg kg-1 (rat body […]
inflammation. The control group was given DMSO only. Paw edema was induced by subcutaneous injection of freshly prepared 1% solution of carrageenan in saline (0.9%, 0.1 ml per rat) into subplantar tissue of the right hind paw of rats. The thickness of the paw was measured (in mm) after successive time intervals (1, 2, 3, 4 and 24 h) and compared with the initial hind paw thickness of each rat for determining the edema thickness. Data were collected, checked, revised and analyzed (SPSS 16). Quantitative variables from normal distribution were expressed as means ± SE “standard error”. The anti-inflammatory activity was expressed as percentage inhibition of edema thickness in treated animals in comparison with the control group according to eqn. (1) […]
% Inhibition of edema= Vc-Vt x 100 … .. (1)
Where, Vc and Vt are the means of edema paw thickness for the control and tested compound treated animal groups, respectively.
The potency of the tested compounds was expressed as % inhibition of edema thickness […]
% Potency = % inhibition of edema for the tested compound treated group x 100 … . (2)

Row | Structure (SMILES) | % Protection (hot plate latency; after 30 min) [%] | Latency Period ± SE (hot plate latency; after 30 min) [s] | % Protection (hot plate latency; after 60 min) [%] | Latency Period ± SE (hot plate latency; after 60 min) [s] | % Protection (hot plate latency; after 90 min) [%] | Latency Period ± SE (hot plate latency; after 90 min) [s] | % Protection (hot plate latency; after 120 min) [%] | Latency Period ± SE (hot plate latency; after 120 min) [s] | reduction in TNF-α mRNA levels (TNF-α mRNA) [%] | LPS-stimulated NO production (nitrite) [1] [µM] | % Incidence of Ulcer Divided by 10 (gastric mucosa) | Average Severity of Ulcer (gastric mucosa) | Average of Ulcer Number (gastric mucosa) | Number of Animals with Ulcer (gastric mucosa) | % Inhibition/Protection [2] [%] | Writing Reflex ± SE [2] | % Inhibition of Edema ± Standard Error ([3]; 1 h) [%] | % Inhibition of Edema ± Standard Error ([3]; 2 h) [%] | % Inhibition of Edema ± Standard Error ([3]; 4 h) [%] | % Inhibition of Edema ± Standard Error ([3]; 24 h, 10 mg/kg) | also measured
1 | CC(C)Cc1ccc(C(C)C(=O)OCc2cn(-c3ccccc3Cl)nn2)cc1 (stereo not drawn) [Compound 5a, (1-(2-Chlorophenyl)-1H-1,2,3-triazol-4-yl)methyl 2-(4-isobutylphenyl)propanoate] | 79.2 | 11.97 ± 2.5 | 71.5 | 12.47 ± 2.0 | 34.5 | 11.98 ± 2.6 | 54.5 | 13.92 ± 2.3 | 88 | 17.7 | 0 | 0 | 0 | 0 | 83.3 | 6.7 ± 0.7 | 29.7 ± 1.1 | 31.3 ± 0.8 | 45.7 ± 1.4 | 22.5% and 22.5 ± 0.9% | Ulcer Index (gastric mucosa): 0; reduction in iNOS mRNA levels (iNOS mRNA): 34%; reduction in IL-6 mRNA levels (IL-6 mRNA): 61.3%; toxic symptoms or mortality (mice): No toxic symptoms or mortality; % Inhibition of Edema ± Standard Error ([3]; 3 h, 10 mg/kg): 95.4% and 95.4 ± 0.7%; Mean Edema Thickness ([3]; 3 h): 0.033 ± 0.01 mm; Mean Edema Thickness ([3]; 24 h): 0.713 ± 0.02 mm
2 | CC(C)Cc1ccc(C(C)C(=O)OCc2cn(-c3ccc(Cl)cc3)nn2)cc1 (stereo not drawn) [Compound 5b, (1-(4-Chlorophenyl)-1H-1,2,3-triazol-4-yl)methyl 2-(4-isobutylphenyl)propanoate] | 84.1 | 12.30 ± 1.6 | 41.3 | 10.27 ± 1.9 | 25.0 | 11.14 ± 1.5 | 27.1 | 11.45 ± 2.0 | 82 | 4.88 ± 1 | 0 | 0 | 0 | 0 | 87.5 | 5.0 ± 0.9 | 58.3 ± 0.7 | 69.6 ± 2.1 | 66.8 ± 1.6 |  | Ulcer Index (gastric mucosa): 0; reduction in IL-6 mRNA levels (IL-6 mRNA): 42%; toxic symptoms or mortality (mice): No toxic symptoms or mortality; % Inhibition of Edema ± Standard Error ([3]; 3 h, 10 mg/kg): 94.5% and 94.5 ± 0.4%; Mean Edema Thickness ([3]; 3 h): 0.040 ± 0.01 mm; % Inhibition of Edema ± Standard Error ([3]; 24 h): 8.4 ± 1.2%
3 | CC(C)Cc1ccc(C(C)C(=O)O)cc1 (stereo not drawn) [Ibu, Ibuprofen, reference compound] | 61.7 | 10.80 ± 0.8 | 51.3 | 11.00 ± 1.3 | 33.6 | 11.90 ± 1.5 | 54.3 | 13.90 ± 2.2 |  |  | 3.33 | 0.67 | 0.33 | 2/6 | 58.5 | 16.6 ± 0.7 | 44.4 ± 2.5 | 43.5 ± 2.9 | 21.0 ± 1.1 | 11.2 ± 0.6% | Potency (hot plate latency): 96.1; Potency [2]: 81.5%; % Inhibition of Edema ± Standard Error ([3]; 3 h): 78.8 ± 0.9%; % Inhibition of Edema ± Standard Error ([3]; 24 h, listed as ibuprofen, 10 mg/kg): 11.2%; Mean Edema Thickness ([3]; 24 h): 0.817 ± 0.07 mm; % Potency [3]: 97.2%
4 | COc1ccc2c(c1)c(CC(=O)O)c(C)n2C(=O)c1ccc(Cl)cc1 [Indo, Indomethacin, reference compound] | 87.1 | 12.50 ± 2.0 | 80.9 | 13.15 ± 1.6 | 57.9 | 14.07 ± 1.2 | 56.5 | 14.10 ± 1.9 |  |  | 10 | 1.67 | 2 | 6/6 | 71.8 | 11.3 ± 1.6 |  |  |  | 12.0 ± 2.1% | Potency (hot plate latency): 100; Potency [2]: 100.0%; Potency ([2]; listed as indomethacin): 100%; % Inhibition of Edema ± Standard Error ([3]; 24 h, listed as indomethacin, 10 mg/kg): 12.0%; % Potency [3]: 100%
